≈ marks a conversion by molar mass, not a printed value.

Data set [1] can be described thus: Compound was evaluated for its solubility in water. Format: ADME.
Data set [2] concerns the target Urokinase-type plasminogen activator (Homo sapiens, UniProt P00749). In words: Inhibition of Human kidney cell urokinase. Format: cell-based.

For `Cc1sc(C(=N)N)cc1-c1nc(-c2ccccc2)cs1`, the solubility in data set [1] is 9000 µM (≈ 2690 µg/mL).

In data set [2], `COc1ccc(-c2csc(-c3cc(C(=N)N)sc3SC)n2)cc1OC` showed a Ki of 58 nM.

In turn, `CSc1sc(C(=N)N)cc1-c1nc(-c2ccccc2)cs1` had a solubility in data set [1] of 300 µM (≈ 99.4 µg/mL).

Regarding `CSc1sc(C(=N)N)cc1-c1nc(-c2ccc(Cl)cc2)cs1`, the Ki in data set [2] stood at 102 nM.

For the compound `COc1sc(C(=N)N)cc1-c1nc(-c2ccccc2)cs1`, the Ki in data set [2] was found to be 531 nM.

`CS(=O)(=O)c1sc(C(=N)N)cc1-c1nc(-c2ccc(Cl)cc2)cs1` had a Ki in data set [2] of 2500 nM.

In turn, `N=C(N)c1cc(-c2nc(-c3ccc(Cl)cc3)cs2)c(SCc2ccccc2)s1` displayed a Ki in data set [2] of 2500 nM.

The compound `CCc1sc(C(=N)N)cc1-c1nc(-c2ccccc2)cs1` had a solubility in data set [1] of 2700 µM (≈ 846 µg/mL). The compound further registered a Ki in data set [2] of 138 nM.

For orientation: solubility means how much of the substance goes into solution per volume. The low end stands for little dissolved substance, the high end for much dissolved substance. By Ki is commonly meant a dissociation constant, usually derived from enzyme kinetics or from competition with a known ligand. A low value points to tighter binding.

The values above are taken from ChEMBL document CHEMBL1135050, “Design and synthesis of 4,5-disubstituted-thiophene-2-amidines as potent urokinase inhibitors” (Bioorg Med Chem Lett, 2002).
